# In patent US12036228B2, “Treatment of seizure disorders” (Shackelford Pharma Inc., priority 2022, dated 2024):
# Values joined by “and” are separate entries in the source; they are usually repeats but may differ in a detail not shown here. Equal entries are not always repeated.
# Key:
# [1] = test system: GTC seizures in human patients; assay: THC treatment of several human patients with GTC seizures (responder rate, one-year remission rate, adverse effects); format: in vivo; conditions: for Increase in 1 YR Seizure Remission Rate over expected: expected 5%; for THC-related adverse event: one adult patient
# Text: Several human patients commenced treatment with THC after a first visit. More details about the treatment are provided below. The group included 82 total adult patients and 12 total pediatric patients. Of those 94 patients, 34 adult patients and 10 pediatric patients had experienced at least one GTC seizure in the year preceding the first visit. At the time of first visit, 14 of the 34 adult patients and 8 of the 10 pediatric patients had never taken THC. At the time of first visit, five of the 34 adult patients and two of the 10 pediatric patients were consistently/regularly taking THC. At the time of first visit, 15 of the 34 adult patients and none of the 10 pediatric patients were inconsistently/irregularly taking THC or had taken THC at some point in the past and were no longer taking THC.
# At the time of first visit, 16 of the 34 adult patients had treatment resistant epilepsy, which means the patients had persistent GTC seizures despite taking two different anti-seizure medications at, or prior to, the first visit. At the time of first visit, all 10 of the pediatric patients had treatment resistant epilepsy.
# The first visit means the date when the patient first saw the doctor for evaluation for THC treatment for GTC seizures. Responder rates means the percentage of patients that had at least a 50% reduction in GTC seizure frequency over a one-year treatment period with THC. One-year remission rate means the percentage of patients that experienced no GTC seizures in a one-year period after commencing THC treatment.
# All of the 34 adult patients and 10 pediatric patients were taking other anti-seizure medications or had other anti-seizure treatment at the time of the first visit. […] Those anti-seizure medications and other anti-seizure treatments included: lamotrigine, topiramate, topiramate XR, vagus nerve stimulation, phenytoin, valproic acid, zonisamide, benzodiazepine, surgery, levetiracetam, carbamazepine, oxcarbazepine, lacosamide, perampanel, clonazepam, phenobarbial, pregabalin, gabapentin, rufinamide, CBD (e.g., Epidiolex), clobazam, and felbamate. Also, all patients who were using THC oral dosages were using products that included no CBD or products that included CBD in doses well below the therapeutic dose for Epidiolex.
# THC Treatment for the 82 adult patients varied. Many of the patients smoked marijuana, so the dosage and/or timing of the dosage was unknown. Because CBD is delivered at sub-therapeutic levels when marijuana is smoked, it is acceptable to attribute any therapeutic effect to THC. The label for the CBD drug Epidiolex includes dosages starting at 5 mg/kg daily for all indications, and increasing to maintenance doses of 10 mg/kg or 20 mg/kg for Lennox-Gestault Syndrome and Dravet Syndrome, and increasing to maintenance doses of 25 mg/kg per day for Tuberous Sclerosis Complex. When 1 gram of cannabis is smoked, it delivers CBD to the lungs in doses well below the therapeutic dose levels prescribed for Epidiolex. Some other patients took unknown dosages of THC orally.
# [2] = test system: GTC seizures in human patient; assay: Example 7 human patient, intractable GTC seizures; format: in vivo; conditions: 10 mg THC with 10 mg CBD orally daily at bedtime, with Trileptal and clonazepam
# Text: A patient was first diagnosed with intractable GTC seizures without status epilepticus in 2001.
# The patient first presented for cannabinoid treatment on May 24, 2013. They were then a PhD student in economics. The patient's medical history is significant for having a car accident with a concussion and “scarring”. They developed GTC seizures occurring 3 times per month. […] In 2008, they started using recreational cannabis occasionally, but not regularly.
# [3] = 14 adult patients who had never taken THC prior to first visit
compound,measurement,setting,value
"CCCCCc1cc(O)c2c(c1)OC(C)(C)[C@@H]1CCC(C)=C[C@@H]21 [THC, Delta-9-tetrahydrocannabinol]","GTC seizure outcome, individual pediatric patient","[1]; 1.8 mg THC transdermal patch daily+2.5 mg oral THC at bedtime, 5 mg CBD BID, 63.3 kg",50% reduction in GTC seizure rates in a one-year period following THC treatment
same,"GTC seizure outcome, individual pediatric patient","[1]; 2-3 mg THC+30 mg CBD orally, BID, 17.3 kg",no GTC seizures in a one-year period following THC treatment
same,"GTC seizure outcome, individual pediatric patient","[1]; 5-10 mg THC+10-20 mg CBD orally, daily at bedtime, 34.1 kg",no GTC seizures in a one-year period following THC treatment
same,adverse effects,[1]; 12 children,none experienced adverse effects
same,1 YR Seizure Remission Rate,[1]; [3],36%
same,Responder Rate (at least 50% reduction in GTC seizure frequency over one year),[1]; [3],71%
same,Adverse Events,[1]; 82 adult patients,2% (2/82)
same,THC-related adverse effects,[1]; 82 adults treated with THC (sleepiness; reduced mental clarity),only two patients experienced THC-related adverse effects
same,Increase in 1 YR Seizure Remission Rate over expected,"[1]; Adult, calculated using the 29% (2/7) remission rate",~**5.8X
same,"GTC seizure outcome, individual pediatric patient","[1]; GTCs and cerebral palsy, CBD 20 mg with 6% THC (1.2 mg) per day orally",resolution of all GTC seizure activity
same,Adverse Events,[1]; Pediatric patients (0/13),0% (0/13)
same,Increase in 1 YR Seizure Remission Rate over expected,"[1]; Pediatric, calculated using the 37.5% (3/8) remission rate",~***7.5X
same,"effect as rescue treatment, individual pediatric patient","[1]; THC (only), 10 mg/mL, 1-3 mg THC as rescue",complete resolution of seizures
same,patients with 50% reduction in GTC seizure rates and no GTC seizures in a one-year period following THC treatment,[1]; of 34 adult patients,15 patients
same,patients with 50% reduction in GTC seizure rates but not seizure free for a one-year period following THC treatment,[1]; of 34 adult patients,9 patients
same,patients without 50% reduction in GTC seizure rates and not seizure free for a one-year period following THC treatment,[1]; of 34 adult patients,10 patients
same,THC-related adverse event,[1]; 2-3 mg THC and 38 mg CBD orally TDD,sleepiness
same,THC-related adverse event,[1]; unknown amounts of THC orally,mental unclarity
same,"GTC seizure outcome, individual pediatric patient","[1]; same patient, 60-70 mg THC orally TDD in 2 divided doses",continued seizure remission
same,"GTC seizure outcome, individual pediatric patients","[1]; two patients, 4-12 mg THC TDD",no GTC seizures in a one-year period following THC treatment and 50% reduction in GTC seizure rate in a one-year period following THC treatment
same,seizures,[2],no seizures since restarting cannabinoids
